Experiments:
[1] = tested on: betaTC-tet pancreatic islet beta-cell line; assay: Toxicity in pancreatic beta cells; type: cell-based, mouse; conditions: betaTC-tet cells, tested concentration range up to 500 nm
Experimental: MK-28 toxicity was tested in pancreatic beta cells, the type of cell that is most sensitive when ER stress response pathways are affected. A conditionally transformed mouse pancreatic islet beta-cell line (betaTC-tet), such as described by Efrat [Ann NY Acad Sci 1999, 875:286-293], was used. These cells produce high amounts of insulin, resulting in a high protein load in the ER, making them very sensitive to ER stress and other stimuli, such as cytokine effects. Compromising any of the UPR branches leads to cytotoxicity in these cells. MK-28 was compared to the ER stressor tunicamycin (Tun).

STHdhQ111/111 cells = assay: Rescue from UPR-induced cell death (tunicamycin), PI cell cycle FACS, sub-G0/G1 fraction; type: cell-based; conditions: Tun for 48 hours
Experimental: (§1) STHdhQ7/7 and STHdhQ111/111 cells were grown as described in Leitman et al. [PLoS One 2014, 9(3):e90803].
After the indicated treatment times in full medium or in DMEM without serum, cells were incubated with propidium iodide (PI) solution ([…]) and read by flow cytometry as described in Leitman et al. [PLoS One 2014, 9(3):e90803]. Cells in sub-G0/G1 were counted as apoptotic/dead cells.
The activity of the novel inhibitors, compared to A4, in preventing cytotoxicity induced by pathogenic Htt, was then tested. A stable murine striatal cell line expressing full-length polyQ-expanded Htt, STHdhQ^111/111, was used.

cells = assay: Intrinsic cytotoxicity on cells; type: cell-based
RIPK1 = target: T1, RIPK1 (Homo sapiens, UniProt Q13546); conditions: Rojas-Rivera et al. 2017; cited from earlier work
T1 sequence (Q13546 1-671): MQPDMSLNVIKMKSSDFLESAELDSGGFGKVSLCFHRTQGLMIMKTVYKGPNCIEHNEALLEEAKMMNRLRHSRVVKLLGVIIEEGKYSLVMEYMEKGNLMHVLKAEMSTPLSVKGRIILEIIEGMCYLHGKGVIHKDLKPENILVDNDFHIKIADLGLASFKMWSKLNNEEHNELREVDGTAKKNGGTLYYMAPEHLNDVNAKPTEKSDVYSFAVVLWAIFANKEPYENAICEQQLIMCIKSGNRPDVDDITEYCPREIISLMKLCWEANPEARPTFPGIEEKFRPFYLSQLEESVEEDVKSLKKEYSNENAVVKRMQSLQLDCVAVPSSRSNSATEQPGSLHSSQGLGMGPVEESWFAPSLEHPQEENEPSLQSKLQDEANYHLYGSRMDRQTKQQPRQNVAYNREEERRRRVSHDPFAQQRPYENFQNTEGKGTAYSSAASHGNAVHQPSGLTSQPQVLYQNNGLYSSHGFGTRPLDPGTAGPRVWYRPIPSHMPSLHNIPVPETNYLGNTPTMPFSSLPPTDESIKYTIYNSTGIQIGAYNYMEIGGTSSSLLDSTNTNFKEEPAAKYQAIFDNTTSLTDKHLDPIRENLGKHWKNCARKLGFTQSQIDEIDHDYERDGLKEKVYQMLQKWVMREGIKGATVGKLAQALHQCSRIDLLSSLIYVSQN

PERK (eIF2αK3) = target: T2, PERK (eIF2αK3) (Mus musculus, UniProt Q9Z2B5); assay: ER stress-mediated eIF2α phosphorylation in tunicamycin-treated striatal cells (immunoblotting); type: cell-based, murine; conditions: STHdhQ7/7 cells, Tun 5 μg/ml for 48 hours; A4 50 μM, PKRi 1 μM
T2 construct: endogenous in cells; host or cells: STHdhQ7/7 murine striatal cells
T2 sequence (Q9Z2B5 29-1114): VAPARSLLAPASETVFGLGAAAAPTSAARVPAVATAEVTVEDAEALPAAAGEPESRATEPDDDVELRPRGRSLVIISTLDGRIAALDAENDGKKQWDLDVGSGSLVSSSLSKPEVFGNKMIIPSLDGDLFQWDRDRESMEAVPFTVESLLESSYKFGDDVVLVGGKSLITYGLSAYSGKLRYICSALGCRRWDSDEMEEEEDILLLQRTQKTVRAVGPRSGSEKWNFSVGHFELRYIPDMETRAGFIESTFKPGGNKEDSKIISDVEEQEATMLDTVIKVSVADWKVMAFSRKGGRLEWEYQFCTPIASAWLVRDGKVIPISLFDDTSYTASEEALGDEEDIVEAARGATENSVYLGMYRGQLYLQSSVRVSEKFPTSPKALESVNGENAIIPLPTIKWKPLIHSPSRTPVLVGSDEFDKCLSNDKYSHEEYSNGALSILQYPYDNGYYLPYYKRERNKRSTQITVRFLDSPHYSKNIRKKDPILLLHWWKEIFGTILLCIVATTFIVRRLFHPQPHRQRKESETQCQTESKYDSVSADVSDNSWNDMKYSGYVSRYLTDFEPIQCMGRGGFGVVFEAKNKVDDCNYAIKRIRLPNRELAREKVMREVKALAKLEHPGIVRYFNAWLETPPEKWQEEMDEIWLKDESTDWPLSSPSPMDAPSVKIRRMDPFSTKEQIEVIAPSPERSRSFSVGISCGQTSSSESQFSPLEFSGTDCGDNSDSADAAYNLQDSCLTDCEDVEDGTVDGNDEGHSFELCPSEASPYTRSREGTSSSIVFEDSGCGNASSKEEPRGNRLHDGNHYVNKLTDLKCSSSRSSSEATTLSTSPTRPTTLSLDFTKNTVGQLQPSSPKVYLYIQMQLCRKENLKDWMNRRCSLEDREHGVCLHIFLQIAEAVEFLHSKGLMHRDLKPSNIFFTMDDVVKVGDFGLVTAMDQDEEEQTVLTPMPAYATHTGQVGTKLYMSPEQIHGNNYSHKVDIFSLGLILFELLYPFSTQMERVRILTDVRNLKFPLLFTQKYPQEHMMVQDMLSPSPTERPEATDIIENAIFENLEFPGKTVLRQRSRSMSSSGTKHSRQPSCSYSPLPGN
Experimental: as §1
(§2) Cells were treated with Tun ([…]) or with A4, PKRi, poly-I:C or exemplary PERK inhibitors of the present embodiments, by adding the tested compound to the cell medium at the indicated concentrations and times. Cell lysis and immunoblotting was performed as described in Leitman et al. [PLoS One 2014, 9(3):e90803].
As the activity of PERK was particularly affected in the Huntington's disease (HD) models [Leitman et al., PLoS One 2014, 9(3):e90803], the therapeutic capacity of a PERK inhibitor named A4 [Wang et al., Chem Biol Drug Des 2010, 76:480-495] was tested in cells expressing polyQ-expanded Htt, as depicted in Background art FIG. 1.

PKR (eIF2αK2) = target: T3, PKR (eIF2αK2) (Mus musculus, UniProt Q03963); assay: PKR activity induced with poly-I:C in cells; type: cell-based
T3 construct: endogenous in cells
T3 sequence (Q03963 1-515): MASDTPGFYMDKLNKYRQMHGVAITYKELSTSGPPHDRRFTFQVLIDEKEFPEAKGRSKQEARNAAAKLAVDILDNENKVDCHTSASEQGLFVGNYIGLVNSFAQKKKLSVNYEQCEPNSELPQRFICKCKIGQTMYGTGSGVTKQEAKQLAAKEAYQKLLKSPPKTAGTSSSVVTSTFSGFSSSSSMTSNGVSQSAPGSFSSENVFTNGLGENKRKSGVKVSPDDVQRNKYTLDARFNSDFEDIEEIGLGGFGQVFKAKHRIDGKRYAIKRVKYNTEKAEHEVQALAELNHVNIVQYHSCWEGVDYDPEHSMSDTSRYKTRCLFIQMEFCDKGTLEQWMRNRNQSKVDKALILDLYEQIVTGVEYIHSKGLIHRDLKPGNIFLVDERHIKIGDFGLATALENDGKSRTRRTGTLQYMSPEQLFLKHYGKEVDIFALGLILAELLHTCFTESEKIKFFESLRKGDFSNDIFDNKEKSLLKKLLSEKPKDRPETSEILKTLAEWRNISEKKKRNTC
Experimental: as §2

Question: With Tunicamycin [reference compound] as the compound, how does the “toxicity in pancreatic beta cells” value [1] read?
Answer: toxic

Question: What does the source list for `COc1cc(/C=N\N(C)c2nc(-c3ccccc3)cc(-c3ccccc3)n2)ccc1O` [Compound 1, 2-{N-methyl-N′-(3-methoxy-4-hydroxybenzylidene)hydrazinyl}-4,6-diphenylpyrimidine]?
Answer: rescue from UPR-induced cell death (cytotoxicity) (STHdhQ111/111 cells): more potent than A4; intrinsic cytotoxicity on cells (cells): neither MPGL1 nor MK-28 exhibited intrinsic cytotoxicity

Question: With `Cn1cc(-c2ccc3c(c2)CCN3C(=O)Cc2cccc(C(F)(F)F)c2)c2c(N)ncnc21` [GSK2606414] as the compound, how does the “inhibition of RIPK1” value (RIPK1) read?
Answer: potent inhibitors of RIPK1

Question: With `O=C1Nc2ccc3ncsc3c2/C1=C/c1cnc[nH]1` [PKRi, reference compound] as the compound, how does the “rescue from UPR-induced cell death (cytotoxicity)” value (STHdhQ111/111 cells) read?
Answer: had no effect

Question: What about the “rescue from UPR-induced cell death (cytotoxicity)” value (STHdhQ111/111 cells; listed as PKR inhibitor) of the same compound?
Answer: no effect

Question: What about the “inhibition of ER stress-mediated eIF2α phosphorylation” value (PERK (eIF2αK3)) of the same compound?
Answer: not by PKRi

Question: And the “inhibition of PKR activity” value (PKR (eIF2αK2))?
Answer: inhibited

Question: For `Cc1cccc(CC(=O)N2CCc3c2ccc(-c2cn(C)c4ncnc(N)c24)c3F)n1` [GSK2656157], which “inhibition of RIPK1” value (RIPK1) is on record?
Answer: potent inhibitors of RIPK1

Reference: patent publication US10723706B2, “Perk inhibitors and uses thereof in treating diseases associated with aggregation-prone proteins” (Ramot at Tel-Aviv University Ltd., priority 2016, dated 2020)
